# Values quoted from earlier work in patent US20100012894A1, “Tooth Whitening Compositions and Methods” (priority 2008, published 2010).
# Details: at six months; concentrations 16%-18% carbamide peroxide (Brunton et al., 2004)
structure (smiles),measurement,value
NC(N)=O.OO [carbamide peroxide],rebound,40 % of patients
